Blank lines part the entries; values can stand above or below the compound they belong to.
Key:
Format in all cases: physicochemical
[1] = Solid state stress stability at 40° C./75% RH (XRPD, stability-indicating HPLC); details: for Area Purity (%): 40° C./75% RH, HPLC
Procedure: Powder X-Ray Diffraction patterns were recorded on a PANalytical X Pert Pro diffractometer equipped with an X celerator detector using Cu Kα radiation at 40 kV and 40 mA. Kα1 radiation is obtained with a highly oriented crystal (Ge111) incident beam monochromator. A 10 mm beam mask, and fixed (¼°) divergence and anti-scatter (⅛°) slits were inserted on the incident beam side. A fixed 0.10 mm receiving slit was inserted on the diffracted beam side. […] The sample was spread on silicon zero background (ZBG) plate for the measurement. The sample was rotated at 4°/min on a PANalytical PW3064 Spinner.
Typically 10 μL aliquots of the sample solutions were diluted to 1 mL with acetonitrile and the assay concentrations were determined from an average of duplicate injections using the following HPLC method. The purity and impurity analyses are done using conventional HPLC.
Stress stability studies were performed to assess the influence of temperature and humidity on stability of Forms A1 and H4A1. A stability-indicating HPLC assay method was developed for quantification of Compound 1. The developed method, described above in section VII, is specific, accurate, precise and robust.

[2] = Gravimetric Vapor Sorption (GVS); details: for Moisture uptake / XRPD analysis of the after GVS sample: GVS 70-0-90% RH
Procedure: Gravimetric Vapor Sorption experiments have been carried out using the DVS-HT instrument (Surface Measurement Systems, London, UK). This instrument measures the uptake and loss of vapor gravimetrically using a recording ultra-microbalance with a mass resolution of ±0.1 μg. […] The desired temperature is maintained at ±0.1° C. […] (3 cycles). The DVS experiment was started at 70% RH (red line) to ensure that there was no moisture loss. The sample was kept at 70% RH for 2 hours. […] After each cycle the moisture uptake decreases to 21, 15, and 2.3% respectively at 90% RH. Significant polymorphic changes were observed by XRPD analysis of the “after GVS” samples.

[3] = Solid-solid transition on storage at controlled humidity, 25° C. (XRPD)
Procedure: Approximately 100 mg of Form A1 was exposed to 100% RH at 25° C. over 1 day. Analysis by XRPD confirmed quantitative conversion of the material to Form […].

[4] = Stability to mechanical stress (grinding, XRPD); details: after thirty minutes of grinding
Procedure: A Wig-1-Bug (Piketech, USA) was used to grind Forms A1 and H-4A1. Each sample (50 mg) was ground for periods of 5, 10, 15 and 30 minutes. Each grinding was carried out in a 2.82 cm^3 container using 0.9 g stainless steel ball ([…]). The vial was swung through a 6.5° arc at 3200 rpm, causing the ball to strike the end of the vial at over 100 Hz.

[5] = Variable temperature XRPD (VT-XRPD)
Procedure: Variable temperature studies were performed with an Anton Paar TTK450 temperature chamber under computer control through an Anton Paar TCU100 temperature control unit. Typically the measurements were done with a nitrogen flow through the camera. Two measurement schemes were used, restricted and continuous. In the restricted mode, measurements were made, only after the TK450 chamber reached the requested temperature. In the continuous mode, the sample was heated at 10° C./minute and fast scans were measured as the temperature changed. After the requested temperature was reached, the sample was cooled at 35° C./minute and a slow scan measured 25° C. The temperatures chosen were based on DSC results. For the diffractometer set-up a 10 mm beam mask, 0.04 radian Soller slits and fixed (1⁄4°) divergence and anti-scatter (1⁄8°) slits were inserted on the incident beam side. A fixed 0.10 mm receiving slit, 0.04 radian Soller slits and a 0.02 mm Nickel filter were inserted on the diffracted beam side. […] A variable temperature study was performed for Form A1 according to the protocol set out in II above.

Area Purity (%) ([1]; 0 days, hydrochloride): 99.6% | Area Purity (%) ([1]; 7 days, hydrochloride): 99.5% | Area Purity (%) ([1]; 14 days, hydrochloride): 99.5% | Area Purity (%) ([1]; 28 days): 99.5% | Physical and chemical stability on storage ([1]; 28 days at 40° C. and 75% RH): physically and chemically stable | Moisture uptake ([2]; at 90% RH, first cycle): 21% | Moisture uptake ([2]; at 90% RH, second cycle): 15% | Moisture uptake ([2]; at 90% RH, third cycle): 2.3% | XRPD analysis of the after GVS sample ([2]; first cycle): mixture of Forms A1 and H4A1 | XRPD analysis of the after GVS sample ([2]; second cycle): mixture of Forms A1 and H4A1
SMILES: C[C@@H]1CCCN1CCCOc1ccc(-c2ccc(=O)[nH]n2)cc1.Cl [Form H4A1, 6-[4-[3-((R)-2-methylpyrrolidine-1-yl)-propoxy]phenyl]2H-pyridazine-3-one hydrochloride]
XRPD analysis of the after GVS sample ([2]; third cycle): Complete conversion of Form H4A1 to Form A1 | XRPD after storage ([3]; 25° C./0% RH for 7 days): quantitative conversion of the material to Form A1

Changes on storage as assessed by XRPD ([1]; 4 weeks of storage at 40 degrees C. at 75% relative humidity): No significant changes | Chemical degradation ([1]; 40° C./75% RH after 4 weeks): chemical degradation was not observed | Water uptake from the environment in the solid state ([1]; 40° C./75% RH after 4 weeks): not observed to take up water | Area Purity (%) ([1]; 0 days, hydrochloride): 99.5% | Area Purity (%) ([1]; 7 days, hydrochloride): 99.6% | Area Purity (%) ([1]; 14 days, hydrochloride): 99.7% | Area Purity (%) ([1]; 28 days): 99.5% | Hydrate formation under GVS conditions ([2]; GVS, 0-90% RH cycles): did not appear to form a hydrate | Hygroscopicity (adsorption and desorption curves) ([2]; GVS, 0-90% RH cycles): not hygroscopic | Amount of moisture adsorbed ([2]; GVS, at 90% RH): approximately 1.8% | Amount of moisture adsorbed ([2]; GVS, relative humidity not printed (below 90% RH)): less than 0.8% | XRPD before and after GVS ([2]; after GVS, 0-90% RH cycles): no significant changes after GVS
SMILES: C[C@@H]1CCCN1CCCOc1ccc(-c2ccc(=O)[nH]n2)cc1.Cl [Form A1, 6-[4-[3-((R)-2-methylpyrrolidine-1-yl)-propoxy]phenyl]2H-pyridazine-3-one hydrochloride]
Change in crystal form on grinding (XRPD) [4]: did not generate a change in crystal form | Crystallinity by XRPD after grinding [4]: crystallinity had been significantly reduced | Solid-solid transformation on heating (VT-XRPD) ([5]; temperature range of 20° C. to 250° C.): No solid-solid transformation was observed | XRPD after exposure to humidity ([3]; 100% RH at 25° C. over 1 day): quantitative conversion of the material to Form H4A1

Temperature at which polymorphic transformation to Form A1 was observed (VT-XRPD) ([5]; Form B1 made by dehydrating Form H4A1 at 25-100° C., 0% RH): 220 °C
SMILES: C[C@@H]1CCCN1CCCOc1ccc(-c2ccc(=O)[nH]n2)cc1.Cl [Form B1, 6-[4-[3-((R)-2-methylpyrrolidine-1-yl)-propoxy]phenyl]2H-pyridazine-3-one hydrochloride]
